The record followed here is ChEMBL document CHEMBL1201862, “PubChem BioAssay data set” (2004).

The GI50 is the concentration at which growth is held to half of that of the control.

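Method: 48-hour compound exposure of cells in 96-well plates, five concentrations, linear interpolation of endpoints. The concentration for 50% growth inhibition is given as GI50.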 Activity calls are given as the source filed them. Cut-off read from the data, not from the text of the source: active = GI50 up to about 1.1 µM and inactive = higher.

Among the test systems are HCC 2998; SNB-19; RPMI-8226; HT-29; Malme-3M; SK-MEL-28; Hs-578T; ACHN; SK-OV-3; NCI/ADR-RES; MDA-MB-231; PC-3; CAKI-1; M14; SF-539; NCI-H23; KM12; HCT-15; OVCAR-5; UACC-257.
Holding throughout (assay): DTP human tumour cell line panel, 48 h

As to `CC/C=C\C=C/C(=O)N/C=C/CCC`, the GI50 in the experiment on HCC 2998 was 23.3 µM (inactive); in the experiment with SNB-19 it was > 100 µM (inactive); with RPMI-8226 it was 40.2 µM (inactive); in the experiment on HT-29, 78.3 µM (inactive); with Malme-3M it was > 100 µM (inactive); in the experiment with SK-MEL-28, > 100 µM (inactive). For the same compound, the GI50 with Hs-578T was > 100 µM (inactive); with ACHN, > 100 µM (inactive); in the experiment with SK-OV-3 it was > 100 µM (inactive); with NCI/ADR-RES it was > 100 µM (inactive); with MDA-MB-231, > 100 µM (inactive); with PC-3 it was 85.1 µM (inactive). Moreover, the GI50 is > 100 µM (inactive) with CAKI-1; > 100 µM (inactive) in the experiment on M14; > 100 µM (inactive) in the experiment with SF-539; > 100 µM (inactive) with NCI-H23; > 100 µM (inactive) in the experiment on KM12; over 100 µM with HCT-15. Besides, the GI50 with OVCAR-5 and in the experiment with UACC-257 was > 100 µM (inactive) each time.
As for `COC(=O)CSSCc1ccc([N+](=O)[O-])cc1`, the GI50 in the experiment with HCC 2998 is 21.4 µM (inactive); with SNB-19, 26.8 µM (inactive); with RPMI-8226 it was 18 µM (inactive); with HT-29, 19.5 µM (inactive); in the experiment with Malme-3M, 29.6 µM (inactive); in the experiment with SK-MEL-28, 18 µM (inactive). For the same compound, the GI50 with Hs-578T was 21.2 µM (inactive); in the experiment on ACHN it was 16.3 µM (inactive); in the experiment with SK-OV-3, 20.8 µM (inactive); with NCI/ADR-RES, 20.9 µM (inactive); in the experiment on MDA-MB-231, 19.1 µM (inactive); in the experiment with PC-3 it was 28.1 µM (inactive). The GI50 is 2.23 µM (inactive) with CAKI-1; 19.8 µM (inactive) with M14; 18.2 µM (inactive) with SF-539; 32 µM (inactive) with NCI-H23; 15.1 µM (inactive) with KM12; 16.7 µM with HCT-15. In addition, the GI50 is 19.4 µM (inactive) with OVCAR-5 and 26.5 µM (inactive) in the experiment with UACC-257.
On to `COC(=O)C(CCc1ccccc1I)C1=CCC2(CC1)OCCO2` (stereo not given), for which the GI50 in the experiment on HCC 2998 is 33.6 µM (inactive); in the experiment with SNB-19 it was 36.3 µM (inactive); with RPMI-8226 it was 62.2 µM (inactive); in the experiment with HT-29, 35.1 µM (inactive); in the experiment on Malme-3M, 33.6 µM (inactive); in the experiment on SK-MEL-28, 89.9 µM (inactive). Besides, the GI50 was 37.6 µM (inactive) in the experiment with Hs-578T; 79.3 µM (inactive) with ACHN; > 100 µM (inactive) in the experiment on SK-OV-3; 24.6 µM (inactive) in the experiment with NCI/ADR-RES; 65.5 µM (inactive) in the experiment on MDA-MB-231; 27 µM (inactive) in the experiment with PC-3. In addition, the GI50 is 95.3 µM (inactive) in the experiment with CAKI-1; 28.2 µM (inactive) in the experiment with M14; > 100 µM (inactive) in the experiment with SF-539; 30.7 µM (inactive) in the experiment on NCI-H23; 33.1 µM (inactive) in the experiment on KM12; 34.1 µM in the experiment on HCT-15. Further, the GI50 is 15.7 µM (inactive) in the experiment with OVCAR-5 and 29.4 µM (inactive) in the experiment with UACC-257.
Consider `N#C/C(N)=C(C#N)/N=C/Nc1ccccc1N`, for which the GI50 in the experiment with HCC 2998, in the experiment with SNB-19, with RPMI-8226, in the experiment on HT-29, with Malme-3M and in the experiment on SK-MEL-28 was > 100 µM (inactive) in each case. The GI50 with Hs-578T, with ACHN, with SK-OV-3, in the experiment with NCI/ADR-RES, in the experiment with MDA-MB-231 and with PC-3 was > 100 µM (inactive) throughout. Further, the GI50 in the experiment on CAKI-1 was > 100 µM (inactive); with M14, > 100 µM (inactive); with SF-539, > 100 µM (inactive); with NCI-H23, > 100 µM (inactive); in the experiment on KM12 it was > 100 µM (inactive); in the experiment with HCT-15, over 100 µM. The GI50 in the experiment with OVCAR-5 and in the experiment with UACC-257 was > 100 µM (inactive) in each case.
As for `CCCCCc1cc(CCCC)sc1-c1ccco1`, the GI50 is > 95.9 µM (inactive) in the experiment with HCC 2998; > 100 µM (inactive) in the experiment with SNB-19; 55.3 µM (inactive) with RPMI-8226; 45 µM (inactive) in the experiment with HT-29; 40 µM (inactive) in the experiment with Malme-3M; > 100 µM (inactive) with SK-MEL-28. Moreover, the GI50 with Hs-578T, in the experiment with ACHN, in the experiment with SK-OV-3, with NCI/ADR-RES, with MDA-MB-231 and with PC-3 was > 100 µM (inactive) throughout. Besides, the GI50 with CAKI-1 was > 100 µM (inactive); in the experiment with M14, 97.5 µM (inactive); in the experiment on SF-539 it was > 93.8 µM (inactive); with NCI-H23, > 100 µM (inactive); with KM12 it was > 86.9 µM (inactive); in the experiment on HCT-15, over 100 µM. In addition, the GI50 is > 87.3 µM (inactive) in the experiment on OVCAR-5 and > 64.3 µM (inactive) with UACC-257.
As to `Cn1c(=O)c2c(nc3n(C)c(=O)c4ccccc4n23)n(C)c1=O`, the GI50 was > 100 µM (inactive) in the experiment with HCC 2998; 25.8 µM (inactive) in the experiment on SNB-19; 20.7 µM (inactive) in the experiment on RPMI-8226; 75.3 µM (inactive) in the experiment on HT-29; > 49.3 µM (inactive) in the experiment on Malme-3M; > 100 µM (inactive) with SK-MEL-28. Further, the GI50 in the experiment with Hs-578T is 59.3 µM (inactive); in the experiment with ACHN, 17.1 µM (inactive); in the experiment on SK-OV-3 it was 37.8 µM (inactive); with NCI/ADR-RES, 59.4 µM (inactive); with MDA-MB-231 it was > 100 µM (inactive); with PC-3, > 95.3 µM (inactive). Besides, the GI50 in the experiment with CAKI-1 is 24.3 µM (inactive); in the experiment on M14, > 96.6 µM (inactive); with SF-539, 34.8 µM (inactive); in the experiment on NCI-H23, 40.4 µM (inactive); in the experiment on KM12 it was 53.6 µM (inactive); in the experiment with HCT-15, 35.1 µM. Moreover, the GI50 with OVCAR-5 and with UACC-257 was > 100 µM (inactive) throughout.
For the compound `O=C(c1c(F)c(F)c(F)c(F)c1F)N1CCN(C(=O)c2c(F)c(F)c(F)c(F)c2F)C1=S`, the GI50 in the experiment on HCC 2998 was 9.57 µM (inactive); with SNB-19, 16.4 µM (inactive); in the experiment on RPMI-8226, 2.43 µM (inactive); with HT-29, 5.48 µM (inactive); in the experiment on Malme-3M, 4.58 µM (inactive); in the experiment with SK-MEL-28, 4.8 µM (inactive). The GI50 in the experiment on Hs-578T is 4.66 µM (inactive); in the experiment on ACHN it was 7.69 µM (inactive); in the experiment with SK-OV-3, 5.05 µM (inactive); in the experiment on NCI/ADR-RES it was 7.33 µM (inactive); with MDA-MB-231, 6.75 µM (inactive); with PC-3, 7.67 µM (inactive). Besides, the GI50 is 2.69 µM (inactive) with CAKI-1; 1.56 µM (inactive) with M14; 10.8 µM (inactive) in the experiment on SF-539; 6.81 µM (inactive) with NCI-H23; 6 µM (inactive) in the experiment on KM12; 2.2 µM in the experiment on HCT-15. For the same compound, the GI50 with OVCAR-5 was 15.6 µM (inactive); with UACC-257, 8.34 µM (inactive).
For the compound `CCOC(=O)NC1CN2CCC1CC2` (stereo not given), the GI50 in the experiment with HCC 2998, in the experiment with SNB-19, in the experiment with RPMI-8226, with HT-29, in the experiment with Malme-3M and with SK-MEL-28 was > 100 µM (inactive) each time. In addition, the GI50 with Hs-578T, with ACHN, in the experiment with SK-OV-3, with NCI/ADR-RES, in the experiment on MDA-MB-231 and with PC-3 was > 100 µM (inactive) in each case. In addition, the GI50 with CAKI-1 was > 100 µM (inactive); in the experiment with M14, > 100 µM (inactive); in the experiment with SF-539 it was > 100 µM (inactive); in the experiment with NCI-H23, > 100 µM (inactive); in the experiment on KM12 it was > 100 µM (inactive); in the experiment with HCT-15 it was over 100 µM. In addition, the GI50 in the experiment with OVCAR-5 and with UACC-257 was > 100 µM (inactive) each time.
Regarding `CC(C)NC(NC(C)C)=C(S(=O)(=O)C(F)(F)C(F)(F)C(F)(F)C(F)(F)F)S(=O)(=O)C(F)(F)C(F)(F)C(F)(F)C(F)(F)F`, the GI50 in the experiment with HCC 2998, in the experiment with SNB-19, in the experiment with RPMI-8226, with HT-29, with Malme-3M and in the experiment on SK-MEL-28 was > 100 µM (inactive) each time. The GI50 in the experiment on Hs-578T, with ACHN, in the experiment on SK-OV-3, in the experiment on NCI/ADR-RES, in the experiment on MDA-MB-231 and in the experiment with PC-3 was > 100 µM (inactive) each time. Further, the GI50 is > 100 µM (inactive) in the experiment on CAKI-1; > 100 µM (inactive) in the experiment on M14; > 100 µM (inactive) in the experiment with SF-539; > 100 µM (inactive) in the experiment on NCI-H23; > 100 µM (inactive) with KM12; over 100 µM with HCT-15. The GI50 in the experiment with OVCAR-5 and with UACC-257 was > 100 µM (inactive) throughout.
For `CCN1CCN(c2nc3ccccc3c3c2CCOc2ccccc2-3)CC1`, the GI50 was 18.6 µM (inactive) with HCC 2998; 39.1 µM (inactive) in the experiment on SNB-19; 19.8 µM (inactive) in the experiment with RPMI-8226; > 31 µM (inactive) in the experiment with HT-29; 17.2 µM (inactive) with Malme-3M; 16.6 µM (inactive) in the experiment on SK-MEL-28. The GI50 is 29.9 µM (inactive) in the experiment with Hs-578T; > 61.2 µM (inactive) in the experiment on ACHN; > 47.8 µM (inactive) with SK-OV-3; > 46.3 µM (inactive) with NCI/ADR-RES; 23.5 µM (inactive) in the experiment on MDA-MB-231; 32.7 µM (inactive) with PC-3. The GI50 is 25.1 µM (inactive) in the experiment with CAKI-1; 18.5 µM (inactive) in the experiment on M14; > 46.2 µM (inactive) with SF-539; > 62.5 µM (inactive) in the experiment on NCI-H23; 24.9 µM (inactive) in the experiment on KM12; 16.6 µM in the experiment with HCT-15. The GI50 with OVCAR-5 is > 45.1 µM (inactive); in the experiment with UACC-257, 18.1 µM (inactive).
